From article PMC5283680 (ACS chemical biology, 2016)
In brackets after ≈: the same amount, converted by molar mass. Where two headings read alike, the source gives them in different places. Positions of bridges follow the written chain, without caps; N, C: chain ends. Non-standard residues stand in square brackets, D forms with d. Residues, ends and D or L forms follow the SMILES beside them. d(aIle) = CC[C@H](C)[C@@H](N)C(=O)O; dNMeF = CN[C@H](Cc1ccccc1)C(=O)O

Key:
[1] = system: Staphylococcus epidermidis ATCC 14990; assay type: cell-based
[2] = system: Streptococcus salivarius ATCC 13419; assay type: cell-based
[3] = system: Enterococcus durans ATCC 6056; assay type: cell-based
[4] = system: Bacillus subtilis ATCC 6051; assay: microbe, parasite or virus in culture; assay type: cell-based
[5] = system: Escherichia coli ATCC 10798; assay type: cell-based
[6] = system: four gram-positive bacteria; assay: MIC assays, summary over the four gram-positive bacteria; assay type: cell-based; conditions: for MIC against the gram-positive bacteria studied: four gram-positive bacteria of Table 1
gram-positive bacteria = conditions: MIC assays; cited from earlier work
various Streptococcus = conditions: cited from earlier work
E. coli = conditions: cited from earlier work
[7] = Staphylococcus epidermidis ATCC 14990, homologues as TFA salts
[8] = Streptococcus salivarius ATCC 13419, homologues as TFA salts
[9] = Enterococcus durans ATCC 6056, homologues as TFA salts
[10] = Bacillus subtilis ATCC 6051, homologues as TFA salts

Compound	MIC ([1]; ATCC 14990)	MIC ([2]; ATCC 13419)	MIC ([3]; ATCC 6056)	MIC ([4]; ATCC 6051)	MIC [5]	MIC against the gram-positive bacteria studied [6]	MIC [1, 7]	MIC [2, 8]	MIC [3, 9]	MIC [4, 10]	further results
CC[C@H](C)[C@H](NC(=O)[C@@H](Cc1ccccc1)NC)C(=O)N[C@@H](CO)C(=O)N[C@H](CCC(N)=O)C(=O)N[C@@H](C(=O)N[C@H](C(=O)N[C@@H](CO)C(=O)N[C@H]1C(=O)N[C@@H](C)C(=O)N[C@@H](CCCNC(=N)N)C(=O)N[C@@H]([C@@H](C)CC)C(=O)O[C@H]1C)[C@@H](C)CC)[C@@H](C)CC [Arg10-teixobactin]	1 µg/mL (≈ 0.804 µM)	1 µg/mL (≈ 0.804 µM)	4 µg/mL (≈ 3.21 µM)	2 µg/mL (≈ 1.61 µM)	>32 µg/mL	1 to 4 µg/mL	–	–	–	–	activity relative to teixobactin ([6]; comparison of own MIC with original published values in related bacteria): about an order of magnitude less active; activity relative to teixobactin (gram-positive bacteria): about an order of magnitude less active
teixobactin	–	–	–	–	–	–	–	–	–	–	MIC (various Streptococcus): 0.02 to 0.15 µg/mL; MIC (E. coli): 25 µg/mL
seco-Arg10-teixobactin	–	–	–	–	–	> 32 µg/mL	>32 µg/mL	>32 µg/mL	>32 µg/mL	>32 µg/mL	–
ent-Arg10-teixobactin	–	–	–	–	–	–	2 µg/mL	1 µg/mL	4 µg/mL	2 µg/mL	activity relative to Arg10-teixobactin ([6]; gram-positive bacteria, MIC): comparable activity
CN[C@H](CC(C)C)C(=O)N[C@H]1C(=O)N[C@@H](CC(N)=O)C(=O)N[C@H]2C(=O)N[C@H]3C(=O)N[C@H](C(=O)N[C@H](C(=O)O)c4cc(O)cc(O)c4-c4cc3ccc4O)[C@H](O)c3ccc(c(Cl)c3)Oc3cc2cc(c3O[C@@H]2O[C@H](CO)[C@@H](O)[C@H](O)[C@H]2O[C@H]2C[C@](C)(N)[C@H](O)[C@H](C)O2)Oc2ccc(cc2Cl)[C@H]1O [vancomycin, reference compound]	–	–	–	–	–	–	–	–	–	–	MIC ([4]; Bacillus subtilis, ATCC6051): 1 µg/mL (≈ 0.69 µM)
CC[C@H](C)[C@H](NC(=O)[C@@H](Cc1ccccc1)NC)C(=O)N[C@@H](CO)C(=O)N[C@H](CCC(N)=O)C(=O)N[C@@H](C(=O)N[C@H](C(=O)N[C@@H](CO)C(=O)N[C@H]1C(=O)N[C@@H](C)C(=O)N[C@@H](CCCCN)C(=O)N[C@@H]([C@@H](C)CC)C(=O)O[C@H]1C)[C@@H](C)CC)[C@@H](C)CC [Lys10-teixobactin] (H-[dNMeF]IS[dQ][d(aIle)]IS[dT]AKI; ester 8-C (inferred); N-terminus assumed)	0.25 µg/mL (≈ 0.206 µM)	0.5 µg/mL (≈ 0.411 µM)	1 µg/mL (≈ 0.822 µM)	0.5 µg/mL (≈ 0.411 µM)	>32 µg/mL	–	–	–	–	–	MIC values, times lower than Arg10-teixobactin ([6]; gram-positive bacteria, relative to Arg10-teixobactin): 2–4 times
